Measurements reported in publication PMC5119973 (Cancer Medicine, 2016).
“And” between values parts separate entries of the source, which are not always exact repeats. Identical values can stand only once.

Assays:
p38-beta = molecular target: T1, p38-beta (Homo sapiens, UniProt Q15759); test: KINOMEscan active-site competitive binding assay; conditions: slash = two separate measurements
T1 construct: purchased DiscoveRx (KINOMEscan service)

MDA‐MB‐231 = MDA‐MB‐231 breast cancer xenograft in NMRI nu/nu mice; format: in vivo, mouse; conditions: for Tumor growth inhibition (%): MDA-MB-231, end of study day 40; for Tumor growth versus vehicle control: MDA‐MB‐231 model, P < 0.05 for all groups
Description: (§1) Mouse experiments were approved by the relevant regulatory agency of the federal state of Berlin (Landesamt für Gesundheit und Soziales Berlin, approval number G0221/03). Mice were maintained in individually ventilated cages in groups of four mice per cage. They received autoclaved food and bedding (Ssniff, Soest, Germany) and acidified (pH 4.0) tap water ad libitum. The animal facility was equipped with an automatic 12 h light/dark regulation, temperature regulation at 22 ± 2°C, and relative humidity of 50 ± 10%. Female NMRI nu/nu mice (purchased from Charles River, Sulzfeld, Germany) were inoculated with 1 × 10^7 MDA‐MB‐231 or HT‐29 cells, which were allowed to grow subcutaneously to a palpable size of approximately 60–100 mm^3. […] All administrations were performed in the morning, without anesthesia. Tumor volume was determined twice per week using caliper measurements, and the volume was calculated using the formula (D × d^2)/2, with d defined as the minor axis and D as the major axis of the measurement. Tumor growth inhibition was calculated as relative tumor volume in relation to the first treatment day.
(§2) Changes in tumor volume were statistically evaluated by two‐way repeated‐measures analysis of variance, followed by Bonferroni correction, using GraphPad Prism 5 (San Diego, CA), and P < 0.05 was regarded as significant. Additionally, body weight of all mice was determined twice weekly, and the health status of the animals, including behavioral changes, was recorded daily.

HT‐29 = HT‐29 colon cancer xenograft in NMRI nu/nu mice; format: in vivo, mouse; conditions: end of study day 39
Description: as §1, §2

TAOK3 = molecular target: T2, TAOK3 (Homo sapiens, UniProt Q9H2K8); test: KINOMEscan active-site competitive binding assay; conditions: slash = duplicate values
T2 construct: purchased DiscoveRx
T2 sequence (Q9H2K8 1-898): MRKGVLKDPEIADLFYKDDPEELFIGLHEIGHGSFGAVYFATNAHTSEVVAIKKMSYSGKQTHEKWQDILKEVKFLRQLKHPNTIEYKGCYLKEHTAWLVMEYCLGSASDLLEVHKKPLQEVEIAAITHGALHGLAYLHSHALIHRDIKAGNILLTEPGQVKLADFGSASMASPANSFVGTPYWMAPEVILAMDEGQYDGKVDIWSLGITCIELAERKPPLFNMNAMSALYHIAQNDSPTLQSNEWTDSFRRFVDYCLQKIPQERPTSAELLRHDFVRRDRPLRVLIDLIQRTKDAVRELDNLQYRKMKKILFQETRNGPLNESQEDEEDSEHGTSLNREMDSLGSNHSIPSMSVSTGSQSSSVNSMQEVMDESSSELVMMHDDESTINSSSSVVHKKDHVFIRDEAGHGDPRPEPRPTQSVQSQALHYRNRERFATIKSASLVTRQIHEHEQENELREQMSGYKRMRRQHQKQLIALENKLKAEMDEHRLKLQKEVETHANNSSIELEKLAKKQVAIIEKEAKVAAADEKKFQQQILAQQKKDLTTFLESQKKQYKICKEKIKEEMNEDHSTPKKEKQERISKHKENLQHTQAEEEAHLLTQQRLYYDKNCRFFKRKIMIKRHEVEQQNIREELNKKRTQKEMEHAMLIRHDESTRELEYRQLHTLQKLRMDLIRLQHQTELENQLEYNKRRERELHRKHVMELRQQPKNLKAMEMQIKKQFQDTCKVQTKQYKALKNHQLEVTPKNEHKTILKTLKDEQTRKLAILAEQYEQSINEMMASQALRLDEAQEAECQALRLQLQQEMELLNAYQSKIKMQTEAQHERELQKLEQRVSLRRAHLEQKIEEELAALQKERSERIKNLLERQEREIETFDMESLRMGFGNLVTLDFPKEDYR

CSF1R = molecular target: T3, CSF1R (Homo sapiens, UniProt P07333); test: KINOMEscan active-site competitive binding assay; conditions: slash = two separate measurements
T3 construct: purchased DiscoveRx (KINOMEscan service)
T3 sequence (P07333 20-972): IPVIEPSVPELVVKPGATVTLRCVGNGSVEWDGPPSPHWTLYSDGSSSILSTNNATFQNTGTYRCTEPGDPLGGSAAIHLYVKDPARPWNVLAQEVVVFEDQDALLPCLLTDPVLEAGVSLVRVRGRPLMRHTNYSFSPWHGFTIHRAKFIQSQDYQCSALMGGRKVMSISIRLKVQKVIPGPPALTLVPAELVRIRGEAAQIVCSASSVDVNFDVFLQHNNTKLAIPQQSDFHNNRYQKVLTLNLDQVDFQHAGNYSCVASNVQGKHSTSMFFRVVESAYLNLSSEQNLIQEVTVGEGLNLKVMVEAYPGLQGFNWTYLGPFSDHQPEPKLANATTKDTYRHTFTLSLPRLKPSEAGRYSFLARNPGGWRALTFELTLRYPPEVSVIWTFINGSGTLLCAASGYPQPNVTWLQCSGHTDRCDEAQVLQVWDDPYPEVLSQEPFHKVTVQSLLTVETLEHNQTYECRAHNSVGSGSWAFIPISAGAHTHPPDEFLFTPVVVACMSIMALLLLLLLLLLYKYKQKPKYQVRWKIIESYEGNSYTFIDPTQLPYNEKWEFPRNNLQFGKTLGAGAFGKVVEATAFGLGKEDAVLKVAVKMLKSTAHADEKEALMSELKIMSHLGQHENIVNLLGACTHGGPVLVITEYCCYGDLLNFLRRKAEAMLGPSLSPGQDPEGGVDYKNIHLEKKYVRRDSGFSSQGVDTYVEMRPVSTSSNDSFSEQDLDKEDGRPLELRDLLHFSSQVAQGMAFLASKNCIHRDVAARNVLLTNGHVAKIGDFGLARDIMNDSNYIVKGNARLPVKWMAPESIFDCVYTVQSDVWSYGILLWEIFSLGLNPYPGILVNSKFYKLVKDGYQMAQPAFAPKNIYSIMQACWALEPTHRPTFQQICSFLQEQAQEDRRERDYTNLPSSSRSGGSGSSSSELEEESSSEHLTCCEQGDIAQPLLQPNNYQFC

CDK11 = molecular target: T4, CDK11 (Homo sapiens, UniProt Q9BWU1); test: KINOMEscan active-site competitive binding assay; conditions: slash = two separate measurements
T4 construct: purchased DiscoveRx (KINOMEscan service)
T4 sequence (Q9BWU1 whole entry): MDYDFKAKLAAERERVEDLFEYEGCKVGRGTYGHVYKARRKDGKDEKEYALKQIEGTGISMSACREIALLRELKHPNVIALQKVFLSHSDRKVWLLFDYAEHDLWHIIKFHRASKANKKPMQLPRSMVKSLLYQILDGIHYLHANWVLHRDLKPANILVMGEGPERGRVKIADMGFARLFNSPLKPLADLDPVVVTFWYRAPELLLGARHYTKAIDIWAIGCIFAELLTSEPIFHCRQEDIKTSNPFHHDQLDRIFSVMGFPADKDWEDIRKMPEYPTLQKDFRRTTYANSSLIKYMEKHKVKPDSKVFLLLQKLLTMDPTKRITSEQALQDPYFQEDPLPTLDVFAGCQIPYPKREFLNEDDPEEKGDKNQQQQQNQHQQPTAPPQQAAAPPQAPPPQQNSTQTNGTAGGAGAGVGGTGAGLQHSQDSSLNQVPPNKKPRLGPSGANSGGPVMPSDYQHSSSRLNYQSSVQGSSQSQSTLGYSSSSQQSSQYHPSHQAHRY

ZAK = molecular target: T5, ZAK (Homo sapiens, UniProt Q9NYL2); test: KINOMEscan active-site competitive binding assay; conditions: slash = two separate measurements
T5 construct: purchased DiscoveRx
T5 sequence (Q9NYL2 whole entry): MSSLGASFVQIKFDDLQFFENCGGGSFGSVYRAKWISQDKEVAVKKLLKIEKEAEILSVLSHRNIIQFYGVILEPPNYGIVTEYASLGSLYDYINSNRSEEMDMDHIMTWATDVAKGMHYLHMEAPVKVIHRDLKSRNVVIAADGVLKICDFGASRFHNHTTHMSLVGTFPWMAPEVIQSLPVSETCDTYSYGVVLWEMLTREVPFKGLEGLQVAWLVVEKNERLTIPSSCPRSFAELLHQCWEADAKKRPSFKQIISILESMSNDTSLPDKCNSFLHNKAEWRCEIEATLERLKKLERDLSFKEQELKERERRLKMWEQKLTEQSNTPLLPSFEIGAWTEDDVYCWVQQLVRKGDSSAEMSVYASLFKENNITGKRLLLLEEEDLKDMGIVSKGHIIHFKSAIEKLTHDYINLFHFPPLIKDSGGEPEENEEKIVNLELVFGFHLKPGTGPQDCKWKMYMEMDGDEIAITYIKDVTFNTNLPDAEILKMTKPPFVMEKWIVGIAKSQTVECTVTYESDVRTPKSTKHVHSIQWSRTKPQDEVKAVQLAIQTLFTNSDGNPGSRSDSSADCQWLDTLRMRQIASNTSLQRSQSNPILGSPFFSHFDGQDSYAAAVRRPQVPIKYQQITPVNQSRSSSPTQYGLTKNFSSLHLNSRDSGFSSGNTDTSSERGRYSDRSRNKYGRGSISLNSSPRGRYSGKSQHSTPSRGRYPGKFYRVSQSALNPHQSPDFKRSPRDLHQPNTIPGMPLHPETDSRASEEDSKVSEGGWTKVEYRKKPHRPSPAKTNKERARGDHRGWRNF

CDKL2 = molecular target: T6, CDKL2 (Homo sapiens, UniProt Q92772); test: KINOMEscan active-site competitive binding assay; conditions: slash = two separate measurements
T6 construct: purchased DiscoveRx (KINOMEscan service)
T6 sequence (Q92772 1-493): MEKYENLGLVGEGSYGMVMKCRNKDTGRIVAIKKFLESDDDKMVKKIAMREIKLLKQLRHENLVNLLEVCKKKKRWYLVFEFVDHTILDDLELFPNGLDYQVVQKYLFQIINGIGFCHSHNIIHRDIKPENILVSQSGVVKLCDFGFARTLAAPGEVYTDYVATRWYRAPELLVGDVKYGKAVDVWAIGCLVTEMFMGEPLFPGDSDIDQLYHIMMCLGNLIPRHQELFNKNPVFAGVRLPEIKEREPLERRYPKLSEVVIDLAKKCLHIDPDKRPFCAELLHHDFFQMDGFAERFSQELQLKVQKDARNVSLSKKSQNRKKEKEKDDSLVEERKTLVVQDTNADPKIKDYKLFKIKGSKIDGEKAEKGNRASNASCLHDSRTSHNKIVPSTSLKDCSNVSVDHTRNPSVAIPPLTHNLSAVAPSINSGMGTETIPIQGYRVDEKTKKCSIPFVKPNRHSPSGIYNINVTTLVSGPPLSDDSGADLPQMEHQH

T1 sequence (Q15759 whole entry): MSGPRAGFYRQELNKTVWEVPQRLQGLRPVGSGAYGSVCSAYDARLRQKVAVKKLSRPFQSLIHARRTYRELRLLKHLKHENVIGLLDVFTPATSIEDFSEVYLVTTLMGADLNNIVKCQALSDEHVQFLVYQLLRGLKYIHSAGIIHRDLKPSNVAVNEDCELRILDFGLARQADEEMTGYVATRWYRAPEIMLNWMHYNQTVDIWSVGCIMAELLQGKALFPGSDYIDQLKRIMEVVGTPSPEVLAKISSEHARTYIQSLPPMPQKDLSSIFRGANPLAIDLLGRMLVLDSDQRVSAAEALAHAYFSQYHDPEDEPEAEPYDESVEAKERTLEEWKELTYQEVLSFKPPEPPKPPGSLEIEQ

Row | SMILES | Kd (p38-beta) | Tumor growth inhibition (%) (MDA‐MB‐231; 3 mg/kg/day oral for 27 days) | Tumor growth inhibition (%) (MDA‐MB‐231; 10 mg/kg/day oral for 27 days) | Tumor growth versus vehicle control (MDA‐MB‐231) | Tumor growth inhibition (%) (HT‐29; 3 mg/kg/day oral for 27 days) | Tumor growth inhibition (%) (HT‐29; 10 mg/kg/day oral for 27 days) | Kd (TAOK3) | Kd (CSF1R) | Kd (CDK11) | Kd (ZAK) | Kd (CDKL2)
1 | CNC(=O)c1cc(Oc2ccc(NC(=O)Nc3ccc(Cl)c(C(F)(F)F)c3)c(F)c2)cc[n+]1[O-] [M‐2] | 8.7 nM | 49 | 70 | significantly inhibited tumor growth | 35 | 59 | 94 nM and 77 nM | 21 nM | 33 nM | 6.7 nM | 76 nM
2 | CNC(=O)c1cc(Oc2ccc(NC(=O)Nc3ccc(Cl)c(C(F)(F)F)c3)c(F)c2)ccn1 [Regorafenib, reference compound] | 44 nM and 28 nM | 44 | 72 | significantly inhibited tumor growth | 34 | 67 | 200 nM and 290 nM | 43 nM and 10 nM | 67 nM and 43 nM | 2.8 nM and 2 nM | 48 nM and 58 nM
3 | NC(=O)c1cc(Oc2ccc(NC(=O)Nc3ccc(Cl)c(C(F)(F)F)c3)c(F)c2)cc[n+]1[O-] [M‐5] | 25 nM | 60 | 59 | significantly inhibited tumor growth | 13 | 66 | 450 nM | 13 nM | 86 nM | 7 nM | 1100 nM
